# Assay results published in patent publication US12708106B2 (priority 2019, dated 2026).
# Test system: Eimeria and Clostridium perfringens
# Assay type: in vivo, male broilers
# [1] = T4: 10 ppm (Enradin 8%), Eimeria + Clostridium challenge, mean ± SD
substance,measurement,setting,value
Enramycin,BWG—Body Weight Gain 1-7 D,[1],90.95 ± 5.11 b g
same,FCR (Feed Conversion Ratio) 1-7 D,[1],1.568 ± 0.123
same,BWG—Body Weight Gain 1-14 D,"T4: 10 ppm, challenged",413.37 ± 12.89 b g
same,BWG—Body Weight Gain 1-21 D,"T4: 10 ppm, challenged",926.22 ± 23.58 b g
same,BWG—Body Weight Gain 1-28 D,"T4: 10 ppm, challenged",1595.5 ± 42.62 b g
same,FCR (Feed Conversion Ratio) 1-14 D,"T4: 10 ppm, challenged",1.070 ± 0.049
same,FCR (Feed Conversion Ratio) 1-21 D,"T4: 10 ppm, challenged",1.255 ± 0.036 ab
same,FCR (Feed Conversion Ratio) 1-28 D,"T4: 10 ppm, challenged",1.228 ± 0.024 ab
